# How the values were obtained:
# [1] = tested on: MCF-7 cells; assay: Breast Cancer Cell Viability Assay (MCF7 Viability Assay); type: cell-based; conditions: 5 days' compound exposure, CellTiter-Glo; for IC50: Homo sapiens, MCF7, 120 h
# Protocol: MCF-7 cells were adjusted to a concentration of 20,000 cells per mL in RPMI containing 10% FBS and 20 mM HEPES. 16 microliters of the cell suspension (320 cells) was added to each well of a 384 well plate, and the cells were incubated overnight to allow the cells to adhere. The following day an eleven point, serial semilog dilution of each compound was added to the cells in 16 μL at a final concentration ranging from 0.3-0.000003 μM. After 5 days' compound exposure, 16 μL of CellTiter-GLo (Promega, Madison Wis.) was added to the cells the relative luminescence units (RLUs) of each well was determined. CellTiter-Glo added to 32 μL of medium without cells was used to obtain a background value. The Percent viability of each sample was determined as follows: (RLU sample-RLU background/RLU untreated cells-RLU background)×100=% viability.
# [2] = biological target: T1, ER-α (Homo sapiens, UniProt P03372); assay: ER-α in Cell Western Assay (SP1); type: cell-based; conditions: MCF-7 cells, SP1 rabbit monoclonal Ab, 4 or 24 hr post compound addition, read-out: ER In-Cell Western Assay (SP1); for Emax: MCF7, Max Response; for DC50: IC50
# T1 construct: endogenous in cells; host or cells: MCF-7
# T1 sequence (P03372 1-595): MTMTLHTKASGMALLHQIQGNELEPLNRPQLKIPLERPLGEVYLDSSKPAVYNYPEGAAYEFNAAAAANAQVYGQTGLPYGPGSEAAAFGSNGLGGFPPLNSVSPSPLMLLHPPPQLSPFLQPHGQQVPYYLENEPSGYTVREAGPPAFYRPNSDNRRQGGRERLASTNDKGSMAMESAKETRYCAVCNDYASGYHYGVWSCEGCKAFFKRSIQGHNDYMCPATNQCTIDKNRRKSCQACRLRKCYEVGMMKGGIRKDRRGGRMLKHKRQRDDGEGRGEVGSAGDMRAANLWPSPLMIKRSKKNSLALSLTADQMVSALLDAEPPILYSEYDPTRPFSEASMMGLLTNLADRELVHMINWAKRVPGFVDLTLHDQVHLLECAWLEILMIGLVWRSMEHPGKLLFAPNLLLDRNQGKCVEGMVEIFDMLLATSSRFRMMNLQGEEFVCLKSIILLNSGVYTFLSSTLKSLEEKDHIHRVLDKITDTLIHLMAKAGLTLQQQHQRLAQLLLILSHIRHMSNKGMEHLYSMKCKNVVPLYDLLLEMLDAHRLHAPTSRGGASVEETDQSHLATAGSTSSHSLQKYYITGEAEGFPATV
# Protocol: MCF-7 cells were adjusted to a concentration of 200,000 cells per mL in RPMI containing 10% charcoal-stripped FBS and 20 mM HEPES. 16 microliters of the cell suspension (3200 cells) was added to each well of a poly-D-lysine 384 well plate, and the cells were incubated overnight to allow the cells to adhere. The following day an eleven point, serial semilog dilution of each compound was added to the cells in 16 μL at a final concentration ranging from 0.3-0.000003 μM. At 4 or 24 hr post compound addition, the cells were fixed (10% formalin in PBS) for 20 minutes. Cells were permeabalized in PBS 0.1% Triton and blocked with LICOR blocking buffer (50 μl/well, 90′). The wells were then incubated overnight at 4° C. with SP1 rabbit monoclonal Ab (Thermo Scientific) diluted 1:1000 in LICOR blocking buffer/0.1% Tween-20. Wells which were treated with blocking buffer with Tween but no antibody were used as a background control. Wells were washed with 0.1% Tween-20/PBS and then incubated in goat anti-rabbit IRDye™ 800CW (LICOR Inc.; 1:1000) and DRAQ5 DNA dye (1:2000 for 2 mM stock) diluted in LICOR blocking buffer containing 0.1% Tween-20 and 0.01% SDS for 60 minutes. Cells were washed (50 μl/well, 5′ each) in 0.1% Tween-20/PBS. Plates were scanned on a LICOR Odyssey infrared imaging system. Integrated intensities in the 800 nm channel and 700 nm channel were measured to determine levels of ER and DNA respectively. Percent ER levels were determined as follows: (Integrated intensity 800 nm sample/integrated intensity 700 nm sample)/(Integrated intensity 800 nm untreated cells/integrated intensity 700 nm untreated cells)×100=% ER levels.
IC50 [1],Emax [2],DC50 [2],Compound,MCF7 Viability Assay Max Response [1]
> 1 nM,60 to 85%,≤ 1 nM,"CC1=C(c2ccc(O)c(C(F)(F)F)c2)C(c2ccc(OC[C@H](C)N3CC[C@@H](C)C3)cc2)Oc2ccc(O)cc21 (stereo partly drawn) [Example 69, 3-(4-Hydroxy-3-(trifluoromethyl)phenyl)-4-methyl-2-(4-((S)-2-((R)-3-methylpyrrolidin-1-yl)propoxy)phenyl)-2H-chromen-6-ol]",++ (++ = a single % value ≧50%)
> 1 nM,60 to 85%,≤ 1 nM,"CC1=C(c2ccc(F)cc2)C(c2ccc(OC[C@H](C)N3CCOCC3)cc2)Oc2ccc(O)cc21 (stereo partly drawn) [Example 70, 3-(4-Fluorophenyl)-4-methyl-2-(4-((S)-2-morpholinopropoxy)phenyl)-2H-chromen-6-ol]",++ (++ = a single % value ≧50%)
≤ 1 nM,≥ 85%,≤ 1 nM,"CC1=C(c2cc(O)ccc2F)C(c2ccc(OC[C@H](C)N3CC[C@@H](C)C3)cc2)Oc2ccc(O)cc21 (stereo partly drawn) [Example 62, 3-(2-Fluoro-5-hydroxyphenyl)-4-methyl-2-(4-((S)-2-((R)-3-methylpyrrolidin-1-yl)propoxy)phenyl)-2H-chromen-6-ol]",++ (++ = a single % value ≧50%)
≤ 1 nM,60 to 85%,≤ 1 nM,"CC1=C(c2ccc(F)cc2F)C(c2ccc(OC[C@H](C)N3CC[C@@H](C)C3)cc2)Oc2ccc(O)cc21 (stereo partly drawn) [Example 52, 3-(2,4-Difluorophenyl)-4-methyl-2-(4-((S)-2-((R)-3-methylpyrrolidin-1-yl)propoxy)phenyl)-2H-chromen-6-ol]",++ (++ = a single % value ≧50%)
≤ 1 nM,≥ 85%,≤ 1 nM,"CC1=C(c2ccc(O)c(C)c2)C(c2ccc(OC[C@H](C)N3CC[C@@H](C)C3)cc2)Oc2ccc(O)cc21 (stereo partly drawn) [Example 42, 3-(4-Hydroxy-3-methylphenyl)-4-methyl-2-(4-((S)-2-((R)-3-methylpyrrolidin-1-yl)propoxy)phenyl)-2H-chromen-6-ol]",++ (++ = a single % value ≧50%)
≤ 1 nM,60 to 85%,≤ 1 nM,"CC1=C(c2ccc(O)cc2C)C(c2ccc(OC[C@H](C)N3CC[C@@H](C)C3)cc2)Oc2ccc(O)cc21 (stereo partly drawn) [Example 41, 3-(4-Hydroxy-2-methylphenyl)-4-methyl-2-(4-((S)-2-((R)-3-methylpyrrolidin-1-yl)propoxy)phenyl)-2H-chromen-6-ol]",++ (++ = a single % value ≧50%)
≤ 1 nM,≥ 85%,≤ 1 nM,"CC1=C(c2cccc(O)c2F)C(c2ccc(OC[C@H](C)N3CC[C@@H](C)C3)cc2)Oc2ccc(O)cc21 (stereo partly drawn) [Example 60, 3-(2-Fluoro-3-hydroxyphenyl)-4-methyl-2-(4-((S)-2-((R)-3-methylpyrrolidin-1-yl)propoxy)phenyl)-2H-chromen-6-ol]",++ (++ = a single % value ≧50%)
≤ 1 nM,≥ 85%,≤ 1 nM,"CC1=C(c2cc(F)c(O)c(F)c2)C(c2ccc(OC[C@H](C)N3CC[C@@H](C)C3)cc2)Oc2ccc(O)cc21 (stereo partly drawn) [Example 47, 3-(3,5-Difluoro-4-hydroxyphenyl)-4-methyl-2-(4-((S)-2-((R)-3-methylpyrrolidin-1-yl)propoxy)phenyl)-2H-chromen-6-ol]",++ (++ = a single % value ≧50%)
> 1 nM,60 to 85%,≤ 1 nM,"CC1=C(c2ccc(F)cc2)C(c2ccc(OC[C@H](C)N3CC4CC4C3)cc2)Oc2ccc(O)cc21 (stereo partly drawn) [Example 71, 2-(4-((2S)-2-(3-Azabicyclo[3.1.0]hexan-3-yl)propoxy)phenyl)-3-(4-fluorophenyl)-4-methyl-2H-chromen-6-ol]",++ (++ = a single % value ≧50%)
≤ 1 nM,≥ 85%,≤ 1 nM,"CC1=C(c2ccc(O)cc2F)C(c2ccc(OC[C@H](C)N3CC[C@@H](C)C3)cc2)Oc2ccc(O)cc21 (stereo partly drawn) [Example 45, 3-(2-Fluoro-4-hydroxyphenyl)-4-methyl-2-(4-((S)-2-((R)-3-methylpyrrolidin-1-yl)propoxy)phenyl)-2H-chromen-6-ol]",++ (++ = a single % value ≧50%)
≤ 1 nM,60 to 85%,≤ 1 nM,"CC1=C(c2ccc(F)cc2)C(c2ccc(OC[C@H](C)N3CCC[C@H]3C)cc2)Oc2ccc(O)cc21 (stereo partly drawn) [Example 63, 3-(4-Fluorophenyl)-4-methyl-2-(4-((S)-2-((R)-2-methylpyrrolidin-1-yl)propoxy)phenyl)-2H-chromen-6-ol]",++ (++ = a single % value ≧50%)
> 1 nM,≥ 85%,≤ 1 nM,"CC1=C(c2ccc(F)c(O)c2F)C(c2ccc(OC[C@H](C)N3CC[C@@H](C)C3)cc2)Oc2ccc(O)cc21 (stereo partly drawn) [Example 48, 3-(2,4-Difluoro-3-hydroxyphenyl)-4-methyl-2-(4-((S)-2-((R)-3-methylpyrrolidin-1-yl)propoxy)phenyl)-2H-chromen-6-ol]",++ (++ = a single % value ≧50%)

Compound,IC50 [1],Emax [2],DC50 [2],MCF7 Viability Assay Max Response [1]
"CC1=C(c2ccc(F)c(F)c2)C(c2ccc(OC[C@H](C)N3CC[C@@H](C)C3)cc2)Oc2ccc(O)cc21 (stereo partly drawn) [Example 46, 3-(3,4-Difluorophenyl)-4-methyl-2-(4-((S)-2-((R)-3-methylpyrrolidin-1-yl)propoxy)phenyl)-2H-chromen-6-ol]",> 1 nM,60 to 85%,> 1 nM,++ (++ = a single % value ≧50%)
"CC1=C(c2ccc(F)cc2)[C@@H](c2ccc(OC[C@H](C)N3CC[C@@H](C)C3)cc2)Oc2ccc(O)cc21 (single isomer, unassigned) [Example 30b]",> 1 nM,60 to 85%,> 1 nM,++ (++ = a single % value ≧50%)
"CC1=C(c2cccc(O)c2)C(c2ccc(OC[C@H](C)N3C4CCC3CC4)cc2)Oc2ccc(O)cc21 (stereo partly drawn) [Example 67, 2-(4-((S)-2-(7-Azabicyclo[2.2.1]heptan-7-yl)propoxy)phenyl)-3-(3-hydroxyphenyl)-4-methyl-2H-chromen-6-ol]",≤ 1 nM,< 60%,≤ 1 nM,++ (++ = a single % value ≧50%)
"CC1=C(c2ccc(Cl)cc2)C(c2ccc(OC[C@H](C)N3CC[C@@H](C)C3)cc2)Oc2ccc(O)cc21 (stereo partly drawn) [Example 44, 3-(4-Chlorophenyl)-4-methyl-2-(4-((S)-2-((R)-3-methylpyrrolidin-1-yl)propoxy)phenyl)-2H-chromen-6-ol]",> 1 nM,60 to 85%,> 1 nM,++ (++ = a single % value ≧50%)
